# Measurements taken from patent US20240101538A1, “PROTEIN-PROTEIN INTERACTION MODULATORS OF AURORA KINASE A AND THEIR USE IN THE PREVENTION AND/OR TREATMENT OF CANCER” (EBERHARD KARLS UNIVERSITÄT TÜBINGEN, priority 2020, published 2024).
# Like-named read-outs stand apart in the source and are kept apart here.
# Legend:
# NMCdkn2a^ARF−/− cells = test: Colony formation assay on NMCdkn2a^ARF−/− cells; format: cell-based, murine; conditions: Mus musculus, 120 h, 5 days, read-out: EC (NMCdkn2a^ARF−/−)
# Source text: To evaluate the effect of small molecules equipped with R-spine interacting moieties, the inventors screened a focused library of proprietary p38a MAP-Kinase inhibitors which were equipped with R-spine interacting pharmacophores. To this end, the inventors utilized a screening system as developed in Dauch et al.^2 The screening system is based on colony formation assays of cell lines isolated from Nras-driven, Trp53-deficient murine HCCs, whose development is dependent on MYC (NMP53^−/− cells), as well as Nras-driven, Cdkn2a^ARF-deficient murine HCCs, which develop independently of MYC (NMCdkn2a^ARF−/− cells). Importantly, NMP53^−/− cells are sensitive to AURKA inhibitors, which induce a conformational shift in AURKA, whereas NMCdkn2a^ARF−/− are not sensitive to such compounds.
# For Colony Formation Assays, cells were seeded at a density of 50 000 cells per 6 well and next day treated with a 2-fold dilution series of the indicated compounds or the highest corresponding DMSO concentration as control. After 5 days, the cells were fixed with a 10% formaldehyde solution for 30 min, washed once with water, stained with a 0.5% crystal violet solution for 30 min and washed twice with water. The compounds effective concentration (EC) was determined according to the lowest concentration in the dilution series, that inhibited cell growth substantially. The resulting benzamide containing hit structure 1, with a twofold selectivity towards NMP53^−/− cells (effective concentration on NMP53^−/− cells (EC): 2 μM, EC on Cdkn2a^ARF−/−: 4 μM, FIG. 1), served as the inventors' starting point for further compound development.
# MYC-AURKA interaction = MYC-AURKA interaction (Mus musculus (Mouse), UniProt P97477); test: Proximity ligation assay (PLA) for MYC and AURKA in NMP53^−/− cells; format: cell-based, murine; conditions: 2 h after treatment
# MYC-AURKA interaction, sequence (P97477 whole entry): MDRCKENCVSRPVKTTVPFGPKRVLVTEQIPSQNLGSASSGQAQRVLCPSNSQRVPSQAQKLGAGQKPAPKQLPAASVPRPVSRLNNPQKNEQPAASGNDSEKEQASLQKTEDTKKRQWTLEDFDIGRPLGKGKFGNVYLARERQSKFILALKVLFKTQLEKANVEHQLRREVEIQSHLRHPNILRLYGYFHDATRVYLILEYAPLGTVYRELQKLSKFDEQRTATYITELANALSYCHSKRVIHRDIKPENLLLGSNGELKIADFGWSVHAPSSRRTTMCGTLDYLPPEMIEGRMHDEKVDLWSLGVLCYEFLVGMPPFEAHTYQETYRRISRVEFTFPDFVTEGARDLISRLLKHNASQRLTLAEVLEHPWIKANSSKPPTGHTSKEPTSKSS
# Procedure: To examine whether this MYC degradation is associated with MYC-AURKA PPI disruption, the inventors performed proximity ligation assays (PLA) in NMP53^−/− cells. For Proximity Ligation Assay (PLA), 50 000 cells were seeded on 12 mm glass slides placed in 6 well plates. On the next day, the cells were treated with the indicated compounds or the corresponding DMSO concentration for 2 h (compound 2c [N-(5-((4-(1H-pyrazole-4-yl)benzyl)amino)-2-fluorophenyl)-3-(furan-2-yl)propanamide] and compound 3a [N-(2-fluoro-5-((4-(1-methyl-1H-pyrazole-4-yl)benzyl)amino)phenyl)-3-(furan-2-yl)propanamide]) or 24 h (alisertib) and fixed for 10 min in 100% MeOH at −20° C. The glass slides were removed from the 6 well plates and the cells permeabilized with TBS+0.3% Triton X-100 for 5 min. After washing with PBS and blocking with 5% BSA in TBS+0.05% Tween for 30 min, the slides were incubated with MYC (Abeam ab32072, 1:200) and AURKA (Abcam ab13824, 1:200) specific antibodies in 1% BSA in TBS+0.05% Tween for 120 min at RT and washed 3 times with PBS for 5 min, wherein the MYC/TPX2 and AURKA specific antibodies are derived from a different species. After a 20 min pre-incubation of two PLA probes, directed against either species of the MYC/TPX2 and AURKA specific antibodies, at RT (DUO92001 and DUO92005 Sigma Aldrich, diluted 1:10 in 1% BSA in TBS+0.05% Tween), the slides were incubated with the probes for 60 min at 37° C. in a humidified chamber. The slides were washed 3 times with 1× wash buffer A (Sigma Aldrich DUO82049) for 5 min and incubated with the ligase solution (ligase diluted 1:40 in 5× ligase buffer and ddH2O, Sigma Aldrich DUO92008) for 60 min at 37° C. in a humidified chamber. […] The foci per cell were counted in a way that the cytoplasmic foci are counted to the cell with the closest nucleus (DAPI). Significance was calculated with the GraphPad Prism 8.4.0 software (GraphPad Software, La Jolla, CA) by using the nonparametric Mann Whitney test.
# 320 wildtype kinases = test: Kinome screen with 320 wildtype kinases; format: biochemical
# AURKA = AURKA (Homo sapiens (Human), UniProt O14965); test: Radioisotope filter binding assay (HotSpotSM; ReactionBiology) for AURKA kinase inhibition; format: biochemical
# AURKA, sequence (O14965 whole entry): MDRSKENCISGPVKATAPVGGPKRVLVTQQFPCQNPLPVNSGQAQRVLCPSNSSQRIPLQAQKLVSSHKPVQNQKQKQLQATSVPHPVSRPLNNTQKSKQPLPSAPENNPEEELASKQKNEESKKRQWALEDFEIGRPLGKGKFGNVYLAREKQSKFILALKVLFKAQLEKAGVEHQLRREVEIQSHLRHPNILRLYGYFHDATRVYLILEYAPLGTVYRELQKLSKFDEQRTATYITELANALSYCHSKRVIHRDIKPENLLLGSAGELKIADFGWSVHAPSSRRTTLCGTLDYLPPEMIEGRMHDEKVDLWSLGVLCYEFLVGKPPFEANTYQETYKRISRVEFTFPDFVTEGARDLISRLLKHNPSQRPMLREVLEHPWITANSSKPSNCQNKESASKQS
# Source text: Table 2 summarizes the EC values of different compounds of this invention determined by colony formation assays on NMP53^−/− and NMCdkn2a^ARF−/− cells, as well as the corresponding IC50 values for the kinase inhibition of AURKA, determined by radioisotope filter binding assay (HotSpotSM; ReactionBiology). Most compounds further show a strong selectivity for NMP53^−/− cells, which is indicated by a lower EC concentration of a particular compound required for inhibiting cell growth of NMP53^−/− cells compared to NMCdkn2a^ARF−/− cells.
# [1] = lowest concentration of 2-fold dilution series that inhibited cell growth substantially
SMILES,minimal effective concentration (NMCdkn2a^ARF−/− cells; [1]),minimal effective concentration (NMCdkn2a^ARF−/− cells),reduction of the MYC-AURKA interaction compared to DMSO (MYC-AURKA interaction),inhibition in kinome screen (320 wildtype kinases; 320 wildtype kinases),IC50 (AURKA),off-targets in kinome screen (320 wildtype kinases; 100 nM),selectivity score (320 wildtype kinases; 500 nM)
"Cn1cc(-c2ccc(CNc3ccc(F)c(NC(=O)CCc4ccco4)c3)cc2)cn1 [Compound 3a, N-(2-fluoro-5-((4-(1-methyl-1H-pyrazole-4-yl)benzyl)amino)phenyl)-3-(furan-2-yl)propanamide]",0.25 to 0.5 µM,0.25 to 0.5 µM,50%,overall no inhibition,> 10000 nM,–,–
"O=C(CCc1ccco1)Nc1cc(NCc2ccc(-c3cn[nH]c3)cc2)ccc1F [Compound 2c, N-(5-((4-(1H-pyrazole-4-yl)benzyl)amino)-2-fluorophenyl)-3-(furan-2-yl)propanamide]",1 µM,> 1 µM,66.7%,–,27.6 nM,no off-targets,0.019
